Assay results taken from US20020183518A1, “Modulators of proteins with phosphotyrosine recognition units” (ONTOGEN CORPORATION, priority 1995, published 2002).

Biological target: T1, PTP-1B (Homo sapiens, UniProt P18031)
T1 construct: known to encode a 321 amino acid fragment containing the PTP-1B catalytic domain and having PTPase activity; made in house; host or cells: E. coli DH5α, plasmid pGEX-3X-PTP-1B
T1 sequence (P18031 3-277 limits assumed): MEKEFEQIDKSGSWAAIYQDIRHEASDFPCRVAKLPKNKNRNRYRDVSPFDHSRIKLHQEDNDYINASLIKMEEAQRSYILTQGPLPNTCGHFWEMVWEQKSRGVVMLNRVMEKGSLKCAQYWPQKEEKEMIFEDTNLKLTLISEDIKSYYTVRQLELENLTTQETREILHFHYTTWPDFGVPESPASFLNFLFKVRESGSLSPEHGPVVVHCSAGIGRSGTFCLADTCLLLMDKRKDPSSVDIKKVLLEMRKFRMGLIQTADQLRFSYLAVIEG
Test: In vitro PTPase inhibition assay (pNPP, colorimetric), PTP-1B
Format: biochemical
Conditions: Table 9; read-out: IC50 values against PTP1B
Protocol: PTP-1B enzymatic activity of samples was assayed in microtiter plates as follows. The protein concentration of the PTP-1B enzyme preparation was determined using the Bio-Rad Protein Assay kit (Bio-Rad, Hercules Calif.). […] Reactions were mixed gently and incubated at 37° C. for 60 minutes. Enzymatic cleavage of phosphate from pNPP (a tyrosine phosphate analog) is marked by a colorimetric change in this substrate. See, e.g., Imbert et al., Biochem J., 297:163-173 (1994); Ghosh and Miller, Biochem. Biophys. Res. […] Zanke et al., Eur. J. […] To determine the enzymatic activity, absorbance readings of the reactions were measured at 405 nm using a Molecular Devices Thermomax Plate Reader (Menlo Park Calif.). […] Purified phosphatase was added to the reaction mixtures to begin the reactions; the reactions were incubated at 37° C. for 60 min. […] (for PTP-1C and PTPα assays), stopped, and colorimetrically analyzed as described above. […] First, absorbance readings from the negative control reactions were treated as a baseline and subtracted from the absorbance readings of the experimental reactions. Then, for each reaction, a percent inhibition was calculated using the following formula: […] For each inhibitor compound tested, an IC50 concentration was calculated from a best-fit computer analysis of the calculated percent inhibition for the various dilutions of the compound. PTP-1B enzymatic activity of samples was assayed in microtiter plates as follows. The protein concentration of the PTP-1B enzyme preparation was determined using the Bio-Rad Protein Assay kit (Bio-Rad, Hercules Calif.). […] Reactions were mixed gently and incubated at 37° C. for 60 minutes. Enzymatic cleavage of phosphate from pNPP (a tyrosine phosphate analog) is marked by a colorimetric change in this substrate. See, e.g., Imbert et al., Biochem J., 297:163-173 (1994); Ghosh and Miller, Biochem. Biophys. Res. […] Zanke et al., Eur. […] To determine the enzymatic activity, absorbance readings of the reactions were measured at 405 nm using a Molecular Devices Thermomax Plate Reader (Menlo Park Calif.). […] Purified phosphatase was added to the reaction mixtures to begin the reactions; the reactions were incubated at 37° C. for 60 min. […] (for PTP-1C and PTPα assays), stopped, and calorimetrically analyzed as described above. […] First, absorbance readings from the negative control reactions were treated as a baseline and subtracted from the absorbance readings of the experimental reactions. Then, for each reaction, a percent inhibition was calculated using the following formula: […] For each inhibitor compound tested, an IC50 concentration was calculated from a best-fit computer analysis of the calculated percent inhibition for the various dilutions of the compound.

| Compound | IC50 [µM] |
| --- | --- |
| COc1ccc(-c2nc(-c3ccc(/C=C/C(=O)O)cc3)c(-c3ccc(/C=C/C(=O)O)cc3)s2)cc1 [Compound 168] | 3 |
| CCCCNC(=O)c1oc(-c2ccc(/C=C/C(=O)O)cc2)nc1-c1ccc(F)cc1 [Compound 148] | 9 |
| CCCCCCC(OC(=O)c1ccc(/C=C/C(=O)O)cc1)C(=O)NCC(=O)OCC (stereo not shown) [Compound 32] | 1.8 |
| O=C(O)/C=C/c1ccc(C(O)C(O)c2ccc(/C=C/C(=O)O)cc2)cc1 (stereo not shown) [Compound 23] | 0.27 |
| CCCCNC(=O)C(OC(=O)c1ccc(/C=C/C(=O)O)cc1)C(=O)c1ccc(F)cc1 (stereo not shown) [Compound 144] | 3 |
| COC(=O)CCCCC(=O)OC(c1ccc(/C=C/C(=O)O)cc1)C(O)c1ccc(/C=C/C(=O)O)cc1 (stereo not shown) [Compound 29] | 0.8 |
| CCCCCCCCNC(=O)/C=C/c1ccc(C(=O)C(=O)c2ccc(/C=C/C(=O)O)cc2)cc1 [Compound 13] | 31 |

The remaining lines, values ahead:

| IC50 [µM] | Compound |
| --- | --- |
| 1.8 | COc1ccc(C(=O)OC(c2ccc(/C=C/C(=O)O)cc2)C(OC(=O)c2ccc(OC)cc2)c2ccc(/C=C/C(=O)O)cc2)cc1 (stereo not shown) [Compound 162] |
| 0.5 | COc1ccc(C(=O)OC(C(=O)c2ccc(/C=C/C(=O)O)cc2)c2ccc(/C=C/C(=O)O)cc2)cc1 (stereo not shown) [Compound 27] |
| 0.89 | COc1ccc(C(=O)OC(c2ccc(/C=C/C(=O)O)cc2)C(O)c2ccc(/C=C/C(=O)O)cc2)cc1 (stereo not shown) [Compound 25] |
